These results are taken from patent US20130059879A1, “Small Molecule Inhibitors of PFKFB3 and Glycolytic Flux and Their Methods of Use as Anti-Cancer Therapeutics” (UNIVERSITY OF LOUISVILLE RESEARCH FOUNDATION, INC., priority 2010, published 2013).

One series relates to Calu-6. As to the kind of experiment: Cancer cell proliferation, Alamar Blue assay, 72 hours. The class given is cell-based. The settings on record: Homo sapiens, Calu-6. In outline:
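Calu-6 human cancer cells were seeded at 2×10^5 cells/ml in 96 well plates. The next day, an equal volume of media containing the compounds at twice the intended concentration was added. After 72 hours of exposure, inhibition of proliferation was measured with the Alamar Blue assay, run in triplicate, and IC50 values were determined.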
Background: The colour change of resazurin is a common sign of viable cells or microbes.

A further series relates to HCT-116. Described as above. It counts as cell-based. The settings on record: Homo sapiens, HCT-116.
The next series relates to Jurkat. The series is described as above. Conditions: Homo sapiens, Jurkat. It counts as cell-based. An outline of the steps: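 This Alamar Blue assay measured the ability of compounds to kill or inhibit proliferation of Jurkat cancer cells. Cells seeded in 96 well plates at 2×10^5 cells/ml received compounds the following day, added at twice the indicated concentration in an equal volume of media. Exposure lasted 72 hours, and IC50 values were derived from triplicate experiments.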

Another series concerns MDA-MB-231. Described as above. The class given is cell-based. Conditions: Homo sapiens.
Another series has as its system NCI-H82. Described as above. The settings on record: Homo sapiens, NCI-H82, read-out: IC50 NCl-H82. It counts as cell-based. An outline of the steps:
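This cell-based assay measured whether compounds kill or inhibit growth of NCI-H82 tumor cells, using Alamar Blue as the readout. Plating was at 2×10^5 cells/ml in 96 well plates. Compounds, prepared at double the final concentration, were added next day in the same volume of medium. Exposure lasted 72 hours, and each experiment was run in triplicate.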

For the next series, the system named is U937. Described as above. It counts as cell-based. Conditions: Homo sapiens, U-937.
Another series deals with T1, PFKFB3 (Homo sapiens, UniProt Q16875).
T1 construct: GST
T1 sequence (Q16875 whole entry, species assumed): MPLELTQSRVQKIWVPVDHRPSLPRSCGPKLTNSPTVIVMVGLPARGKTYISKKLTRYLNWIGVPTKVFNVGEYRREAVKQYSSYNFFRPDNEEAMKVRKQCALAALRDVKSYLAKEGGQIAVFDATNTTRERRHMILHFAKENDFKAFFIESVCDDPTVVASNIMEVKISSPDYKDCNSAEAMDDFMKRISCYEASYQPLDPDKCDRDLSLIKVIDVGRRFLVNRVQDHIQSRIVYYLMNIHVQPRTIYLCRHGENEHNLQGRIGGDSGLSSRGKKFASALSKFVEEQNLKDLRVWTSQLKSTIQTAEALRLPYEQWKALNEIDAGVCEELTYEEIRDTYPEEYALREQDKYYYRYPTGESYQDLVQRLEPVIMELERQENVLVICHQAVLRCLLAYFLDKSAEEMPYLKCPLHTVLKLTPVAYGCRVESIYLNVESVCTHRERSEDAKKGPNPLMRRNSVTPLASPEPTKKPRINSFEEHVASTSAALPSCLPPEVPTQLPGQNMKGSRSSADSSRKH
Briefly: Inhibition of recombinant PFKFB3 kinase activity (ADP Glow assay). The class given is biochemical. The settings on record: 250 nM analog concentration; read-out: % Inhibition of PFKFB3 Enzymatic Activity. An outline of the steps:
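Recombinant PFKFB3 expressed in E. coli and GST-purified; inhibition measured with an ADP Glow kinase activity assay. Reported as IC50 or percent inhibition at a fixed concentration.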
(ADP-Glo turns the ADP formed in a reaction into a luminescent signal.)

A short description of series [1]: Microsomal stability in human liver microsomes. It counts as in vitro ADME. For orientation: Microsomes from liver hold many membrane-bound enzymes, among them those of drug oxidation.
Series [2] in a line: Solubility in solvents and excipients, 1 hour at room temperature, HPLC. The class given is physicochemical. Conditions: thermodynamic from solid. Here is the method: Chemical properties of the compounds of the invention were investigated, including the solubility in several solvents and pharmaceutically accepted excipients. […] Briefly, selected compounds of the invention are dissolved in a small volume of the solvents/excipients of interest at room temperature over 1 hour in typically 1 ml and the concentration is measured by HPLC after filtration.

Another series relates to Jurkat cells. Briefly: Inhibition of 14C-2-deoxyglucose uptake. The class given is cell-based. Conditions: Homo sapiens, 3 hours. The protocol:
Inhibition of PFKFB3 results in inhibiting glycolysis. Several feedback or feedforward activation and inhibition mechanisms exist so that, by a feedback mechanism, inhibiting the activity of PFKFB3 may inhibit glucose uptake by cells. An assay was developed to determine if there was inhibition of glucose uptake following exposure to the compounds on the invention. Briefly, Jurkat cells were plated at 1×10^5/mL in RPM′ 1640 supplemented with 10% fetal bovine serum and 50 μg/mL gentamicin sulfate. Cells were immediately treated with vehicle or 5 μmol/L of the compound of the invention for 3 hours and subsequently placed in glucose-free RPMI 1640 for 30 min. ^14C-2-deoxyglucose (0.25 μCi/mL; Perkin Elmer) was added for an additional 60 min and cells were then washed three with ice-cold RPMI 1640 containing no glucose. Cell lysates were collected in 500 μL of 0.1% SDS, and scintillation counts (counts/min) were measured on 400 μL of lysate. Counts were normalized to protein concentration.

For a further series, the system named is A549. As to the kind of experiment: Cell proliferation, MTT assay, 48 hours. The class given is cell-based. The settings on record: Homo sapiens. Here is the method:
(§1) The ability of the compounds described herein to kill or inhibit the proliferation of cancer cells was measured using either the MTT assay, or the Alamar Blue assay, or the Cell Titer Glow® assay using 48 or 72 hours exposure. […] The procedures are briefly described below. Cells of the desired tumor cell line were plated at 2×10^5 cells/ml in 96 well plates. Twice the indicated concentrations of the compounds of the invention were added to cells the following day in an equal volume of media. 72 hours later, cells were lysed and subjected to ATP determination using the CellTiter Glo-Luminescent Cell Viability Assay kit (Promega, Madison, Wis.). Experiments were done in triplicate. When using the MTT assay or the Alamar blue assay, the experimental conditions are essentially similar; at the end of the incubation period, 20 microliters of the MTT solution is added per well and the samples are incubated for an additional four hours, rinsed, and the absorbance at 570 nm measured. […] Table 2 lists the IC50 values for the compounds of the invention in several cell lines including Jurkat, Calu-6, NCI-H82, U937, HCT-116, and MDA-MB-231 cancer cell lines.

The subject of another series is BT474. Briefly: Cell proliferation, MTT assay, 48 hours. The settings on record: Homo sapiens, BT-474. It counts as cell-based. Here is the method:
as §1

Another series has as its system BX-PC-3. As to the kind of experiment: Cell proliferation, MTT assay, 48 hours. It counts as cell-based. The settings on record: Homo sapiens, BXPC-3, BX-PC-3, MTT assay. The protocol: as §1
In a further series the test system is CT26. Briefly: Cell proliferation, MTT assay, 48 hours. The class given is cell-based. Conditions: Mus musculus. Here is the method:
as §1

A further series has as its system H22. As to the kind of experiment: Cell proliferation, MTT assay, 48 hours. The class given is cell-based. The settings on record: Mus musculus. The protocol: as §1
A further series concerns LnCap. As to the kind of experiment: Cell proliferation, MTT assay, 48 hours. The class given is cell-based. The settings on record: Homo sapiens. Here is the method: as §1
Another series relates to MiaPaca. As to the kind of experiment: Cell proliferation, MTT assay, 48 hours. It counts as cell-based. Conditions: Homo sapiens, MIA PaCa-2. Here is the method: as §1
A further series deals with SK-BR-3. As to the kind of experiment: Cell proliferation, MTT assay, 48 hours. Conditions: Homo sapiens, SK-BR-3, MTT assay. It counts as cell-based. The protocol: as §1
In another series the test system is SK-N-SH. As to the kind of experiment: Cell proliferation, MTT assay, 48 hours. The class given is cell-based. Conditions: Homo sapiens. The protocol:
as §1

The next series has as its system U87MG. As to the kind of experiment: Cell proliferation, MTT assay, 48 hours. It counts as cell-based. The settings on record: Homo sapiens, U-87 MG. The protocol:
as §1

[3] abbreviates: 60 min incubation, 1.0 mg/ml microsomal protein, 1 mM NADPH, 37° C.
[4] abbreviates: aqueous with cosolvent or surfactant or cyclodextrin, Cre:EtOH:Saline 5:5:90 mixture, 1 hour at room temperature, read-out: Solubility Cre:EtOH:Saline.
[5] abbreviates: ethanol, organic solvent or mixture, EtOH, 1 hour at room temperature, read-out: Solubility EtOH.
[6] abbreviates: organic solvent or mixture, 1:1 cremophor EL-P:ethanol mixture, 1 hour at room temperature, read-out: Solubility Cre:EtOH.
Setting [7] is: organic solvent or mixture, Acetone, 1 hour at room temperature, read-out: Solubility Acetone.
[8] abbreviates: organic solvent or mixture, Cremophor, 1 hour at room temperature, read-out: Solubility Cremophor.
Where [9] appears, read: organic solvent or mixture, DCM, 1 hour at room temperature, read-out: Solubility DCM.
Setting [10] is: organic solvent or mixture, Tween 80, 1 hour at room temperature, read-out: Solubility Tween 80.
Where [11] appears, read: organic solvent or mixture, Tween80:EtOH 6:4 mixture, 1 hour at room temperature, read-out: Solubility Twee80:EtOH.

One may read the IC50 as the concentration needed to halve the response being measured. A word on the inhibition: it is the percentage by which the read-out fell short of the control. The term solubility denotes how much of the substance goes into solution per volume.

Molecules are shown by their SMILES. Values after ≈ are worked out from the molar mass of the structure shown. Read-outs that look alike come from different tables or passages of the source.

On to `O=C(c1ccncc1)c1cc2c(ccc3ccccc32)[nH]1` [ACT-PFK-095, (3H-Benzo[e]indol-2-yl)-pyridin-4-yl-methanone], for which the concentration for half-maximal inhibition (IC50) was found to be 208 nM in the series on Calu-6; 2400 nM with HCT-116; 1500 nM with Jurkat; 395 nM with MDA-MB-231; 498 nM in the series with NCI-H82; 50 nM in the series with U937. Moreover, the inhibition at 0.25 µM at PFKFB3 was found to be 26.2%. The “HLM, Mean metabolized (%)” value in [1] (0 min) worked out at 0.0%; in [1] (setting [3]) it was 26%. Further, the solubility at 1 h was 300 µg/mL (≈ 1.1 mM) in [2] (setting [4]); 1600 µg/mL (≈ 5.88 mM) in series [2] (setting [5]); 10000 µg/mL (≈ 36.7 mM) in series [2] (setting [6]); 5000 µg/mL (≈ 18.4 mM) in series [2] (setting [7]); 6900 µg/mL (≈ 25.3 mM) in series [2] (setting [8]); 3400 µg/mL (≈ 12.5 mM) in series [2] (setting [9]). Also, the solubility at 1 h in series [2] (setting [10]) amounted to 7400 µg/mL (≈ 27.2 mM); in [2] (setting [11]), 9700 µg/mL (≈ 35.6 mM). The compound also yielded an inhibition at 5 µM with Jurkat cells of 48%.
Take `Nc1ccc(C(=O)c2cc3c(ccc4ccccc43)[nH]2)cc1` [ACT-PFK-112, (4-Amino-phenyl)-(3H-benzo[e]indol-2-yl)-methanone]: the half-maximal inhibitory concentration (IC50) is 260 nM in the series with Calu-6; 1440 nM in the series on HCT-116; 625 nM in the series with Jurkat; 205 nM in the series with MDA-MB-231; 685 nM in the series on NCI-H82; 130 nM in the series on U937. Further, the IC50 in the series on A549 is 822 nM; in the series with BT474, 1370 nM; in the series with BX-PC-3 it was 135 nM; in the series on CT26, 1950 nM; in the series with H22, 513 nM; in the series on LnCap it was 1030 nM. Moreover, the concentration for half-maximal inhibition (IC50) turned out to be 154 nM with MiaPaca, 1110 nM with SK-BR-3, 305 nM in the series on SK-N-SH and 3790 nM with U87MG. For the same compound, the inhibition at 0.25 µM on PFKFB3 worked out at 81.5%. The results for the “HLM, Mean metabolized (%)” value in series [1] (0 min) and in [1] (setting [3]) were 0.0% and 82.7%, respectively. Besides, the solubility at 1 h in [2] (setting [4]) was determined as 3700 µg/mL (≈ 12.9 mM); in series [2] (setting [5]), 7400 µg/mL (≈ 25.8 mM); in series [2] (setting [6]), 37600 µg/mL (≈ 131 mM); in [2] (setting [7]), 8200 µg/mL (≈ 28.6 mM); in series [2] (setting [8]) it was 18600 µg/mL (≈ 65 mM); in series [2] (setting [9]), 14000 µg/mL (≈ 48.9 mM). Also, the solubility at 1 h in series [2] (setting [10]) is 18100 µg/mL (≈ 63.2 mM); in series [2] (setting [11]), 35600 µg/mL (≈ 124 mM). Besides, in the series on Jurkat cells, testing at 5 µM gave an inhibition of 47%.
